One may read the IC50 as the concentration at which inhibition is half-maximal.

In US20240417405A1, “Substituted Spiro Derivatives” (Janssen Pharmaceutica NV, priority 2021, published 2024) one finds IC50 data, which are given here for 25 compounds.

Structures are written as SMILES. Like-named read-outs stand apart in the source and are kept apart here.

One assay deals with MOLM14 cells. The assay is described as follows: Proliferation assay, spheroid-like growth, MOLM14 (MLL-AF9 rearranged). The format is cell-based, human. Conditions: 8 days, confluence as measure of spheroid size, read-out: spheroid assay_OneTime MOLM14 IC50. The procedure, abridged:
(§1)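 MOLM14 (MLL-AF9) or KO-52 (MLL wildtype) cells were grown in ultra-low attachment round-bottom wells with compound (0.3% DMSO) for 8 days at 37 °C. Spheroid confluence was imaged live on day 8, normalized to DMSO and a high-dose reference/staurosporin control, and absolute IC50 fitted with variable slope.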

For assay [1], the target named is T1, menin/MLL (terbium chelate-labeled menin, FITC-MBM1 peptide) (Homo sapiens, UniProt O00255, T541A).
T1 construct: Menin (a.a 1-610-6xhis tag)
T1 sequence (O00255 with tags, fused parts or gaps T541A): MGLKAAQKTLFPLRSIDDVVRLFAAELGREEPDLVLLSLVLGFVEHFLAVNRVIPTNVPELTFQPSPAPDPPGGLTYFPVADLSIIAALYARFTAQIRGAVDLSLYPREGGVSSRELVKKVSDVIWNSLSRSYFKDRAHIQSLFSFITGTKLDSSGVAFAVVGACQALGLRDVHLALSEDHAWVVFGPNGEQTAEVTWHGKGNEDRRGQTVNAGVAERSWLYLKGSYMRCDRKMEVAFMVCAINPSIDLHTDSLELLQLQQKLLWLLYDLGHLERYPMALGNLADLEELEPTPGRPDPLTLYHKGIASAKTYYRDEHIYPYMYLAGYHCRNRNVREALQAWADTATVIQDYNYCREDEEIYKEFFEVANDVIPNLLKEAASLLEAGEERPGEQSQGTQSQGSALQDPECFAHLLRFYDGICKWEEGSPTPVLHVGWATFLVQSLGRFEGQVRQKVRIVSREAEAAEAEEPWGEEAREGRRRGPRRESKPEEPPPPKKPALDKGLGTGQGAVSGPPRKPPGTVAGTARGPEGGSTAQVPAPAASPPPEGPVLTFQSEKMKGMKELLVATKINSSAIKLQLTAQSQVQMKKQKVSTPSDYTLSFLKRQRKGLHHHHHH
In words: Menin/MLL homogenous time-resolved fluorescence (HTRF) assay. The format is binding. The conditions noted are these: 30 min incubation. The procedure, abridged: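 Read-out: TR-FRET ratio (FITC 520 nm / terbium 490 nm, ex. 337 nm) after 15 min with 75 nM FITC-MBM1 peptide. Test compound first sat 30 min with 200 pM Tb-menin 1-610-His, 0.5% DMSO, pH 7.5 Tris buffer. IC50 by Hill fit; values under 0.1 nM reported as 0.1 nM.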
(In general: Time-resolved FRET reads energy transfer from a long-lived donor to a nearby acceptor.)

Another assay relates to KO-52 cells. The assay is described as follows: Proliferation assay, spheroid-like growth, KO-52 (MLL wildtype control cell line). Type of assay: cell-based, human. The conditions noted are these: KO-52 control cells, 8 days, confluence as measure of spheroid size, read-out: spheroid assay_OneTime KO-52 IC50. In short, it runs like this: as §1

`CC(C)C([C@H]1C[C@@H](N2CCC(C)(O)CC2)C1)N1CC2(CCN(c3ncnnc3Oc3ccc(F)cc3-c3cncnc3C3CC3)C2)C1` (stereo partly drawn) [Compound 129]: the IC50 with MOLM14 cells (Homo sapiens, MOLM-14, 192 h) is 0.011 µM; in assay [1], 0.0002 µM; in the assay on KO-52 cells (Homo sapiens, 192 h), 3.39 µM.

`CC(C)[C@H]([C@H]1C[C@@H](N2CC3(COC(=O)N3)C2)C1)N1CC2(CCN(c3ncnnc3Oc3ccc(F)cc3-c3cncnc3C3CC3)C2)C1` (single isomer, unassigned) [Compound 318]: the concentration for half-maximal inhibition (IC50) came out at 0.026 µM with MOLM14 cells (Homo sapiens, MOLM-14, 192 h); 0.0001 µM in assay [1]; 6.9 µM in the assay with KO-52 cells (Homo sapiens, 192 h).

With `CC(C)C([C@H]1C[C@@H](N2CC3(COC3)C2)C1)N1CC2(CCN(c3ncnnc3Oc3ccc(F)cc3-c3cncnc3C3CC3)C2)C1` (single isomer, unassigned) [Compound 20], the IC50 was found to be 0.005 µM with MOLM14 cells (Homo sapiens, MOLM-14, 192 h); 0.0001 µM in assay [1]; 4.3 µM in the assay with KO-52 cells (Homo sapiens, 192 h).

Regarding `CC(C)[C@@H]([C@H]1C[C@H](N2C[C@H]3COC[C@H]3C2)C1)N1CC2(CCN(c3ncnnc3Oc3ccc(F)cc3-c3nnccc3C3CC3)C2)C1` (single isomer, unassigned) [Compound 259], the half-maximal inhibitory concentration (IC50) amounted to 0.094 µM in the assay with MOLM14 cells (Homo sapiens, MOLM-14, 192 h); 0.0004 µM in assay [1]; 4.76 µM in the assay on KO-52 cells (Homo sapiens, 192 h).

Regarding `CC(C)[C@H](C1CC2(CCN2CC2COC2)C1)N1CC2(CCN(c3ncnnc3Oc3ccc(F)cc3-c3cncnc3C3CC3)C2)C1` (single isomer, unassigned) [Compound 155], the IC50 is 0.57 µM with MOLM14 cells (Homo sapiens, MOLM-14, 192 h); 0.0023 µM in assay [1]; over 15 µM in the assay with KO-52 cells (Homo sapiens, 192 h).

As for `CC(C)[C@H]([C@H]1C[C@H](N2C[C@H]3COC[C@H]3C2)C1)N1CC2(CCN(c3ncnnc3Oc3ccc(F)cc3-c3ncccc3C3CC3)C2)C1` (single isomer, unassigned) [Compound 150], the IC50 in the assay on MOLM14 cells (Homo sapiens, MOLM-14, 192 h) is 0.12 µM; in assay [1] it was 0.0001 µM; in the assay on KO-52 cells (Homo sapiens, 192 h), 3.14 µM.

`CC(C)[C@H]([C@H]1C[C@@H](N2CC[C@@H](O)C23CC3)C1)N1CC2(CCN(c3ncnnc3Oc3ccc(F)cc3-c3cncnc3C3CC3)C2)C1` (single isomer, unassigned) [Compound 40]: the IC50 amounted to 0.01 µM with MOLM14 cells (Homo sapiens, MOLM-14, 192 h); 0.0002 µM in assay [1]; 0.5 µM in the assay with KO-52 cells (Homo sapiens, 192 h).

`CC(=O)Nc1nccc(N[C@H]2C[C@@H]([C@@H](C(C)C)N3CC4(CCN(c5ncnnc5Oc5ccc(F)cc5-c5cncnc5C5CC5)C4)C3)C2)n1` (single isomer, unassigned) [Compound 405]: the IC50 with MOLM14 cells (Homo sapiens, MOLM-14, 192 h) stood at 0.003 µM; in assay [1], 0.00022 µM; in the assay on KO-52 cells (Homo sapiens, 192 h) it was 7.57 µM.

As for `CO[C@H]1CCN([C@H]2C[C@@H]([C@@H](C(C)C)N3CC4(CCN(c5ncnnc5Oc5ccc(F)cc5-c5cnncc5C5CC5)C4)C3)C2)C1` (single isomer, unassigned) [Compound 81], the half-maximal inhibitory concentration (IC50) is 0.28 µM in the assay on MOLM14 cells (Homo sapiens, MOLM-14, 192 h); 0.002 µM in assay [1]; over 15 µM in the assay on KO-52 cells (Homo sapiens, 192 h).

Consider `CC(C)[C@H]([C@H]1C[C@@H](N2C[C@H]3COC[C@H]3C2)C1)N1CC2(CCN(c3ncnnc3Oc3ccc(F)cc3-c3cncnc3C3CC3)C2)C1` (single isomer, unassigned) [Compound 14], for which the IC50 in the assay with MOLM14 cells (Homo sapiens, MOLM-14, 192 h) turned out to be 0.002 µM; in assay [1], 0.0001 µM; with KO-52 cells (Homo sapiens, 192 h) it was 2.11 µM.

As to `CO[C@H]1[C@@H]2CN([C@H]3C[C@@H]([C@@H](C(C)C)N4CC5(CCN(c6ncnnc6Oc6ccc(F)cc6-c6cncnc6C6CC6)C5)C4)C3)C[C@@H]21` (single isomer, unassigned) [Compound 233], the IC50 in the assay on MOLM14 cells (Homo sapiens, MOLM-14, 192 h) amounted to 0.002 µM; in assay [1] it was 0.0001 µM; with KO-52 cells (Homo sapiens, 192 h), 0.84 µM.

For the compound `CO[C@@H]1CCN([C@H]2C[C@@H]([C@H](C(C)C)N3CC4(CCN(c5ncnnc5Oc5ccc(F)cc5-c5nnccc5C5CC5)C4)C3)C2)C1` (single isomer, unassigned) [Compound 257], the IC50 in the assay on MOLM14 cells (Homo sapiens, MOLM-14, 192 h) was 0.006 µM; in assay [1], 0.0001 µM; in the assay with KO-52 cells (Homo sapiens, 192 h), over 15 µM.

Consider `CC(C)C([C@H]1C[C@@H](N(C)C)C1)N1CC2(CCN(c3ncnnc3Oc3ccc(F)cc3-c3cncnc3C3CC3)C2)C1` (single isomer, unassigned) [Compound 7], for which the IC50 with MOLM14 cells (Homo sapiens, MOLM-14, 192 h) is 0.004 µM; in assay [1], 0.0001 µM; in the assay with KO-52 cells (Homo sapiens, 192 h), 5.04 µM.

In the case of `COC1(C)CCN([C@H]2C[C@H]([C@H](C(C)C)N3CC4(CCN(c5ncnnc5Oc5ccc(F)cc5-c5nnccc5C5CC5)C4)C3)C2)C1` (mixture of isomers) [Compound 276], the IC50 is 0.082 µM in the assay with MOLM14 cells (Homo sapiens, MOLM-14, 192 h); 0.0008 µM in assay [1]; over 15 µM with KO-52 cells (Homo sapiens, 192 h).

Take `CC(C)[C@@H]([C@H]1C[C@@H](N2CC[C@](C)(O)C2)C1)N1CC2(CCN(c3ncnnc3Oc3ccc(F)cc3-c3cnncc3C3CC3)C2)C1` (single isomer, unassigned) [Compound 112]: the IC50 with MOLM14 cells (Homo sapiens, MOLM-14, 192 h) stood at 0.006 µM; in assay [1], 0.0001 µM; in the assay with KO-52 cells (Homo sapiens, 192 h) it was 10.1 µM.

Take `CC(=O)N1CCN([C@H]2C[C@@H]([C@@H](C(C)C)N3CC4(CCN(c5ncnnc5Oc5ccc(F)cc5-c5ncc(C#N)cc5C5CC5)C4)C3)C2)CC1` (single isomer, unassigned) [Compound 79]: the concentration for half-maximal inhibition (IC50) in the assay on MOLM14 cells (Homo sapiens, MOLM-14, 192 h) stood at 0.24 µM; in assay [1], 0.0003 µM; with KO-52 cells (Homo sapiens, 192 h), 3.66 µM.

On to `CC(C)[C@H]([C@H]1C[C@@H](N2CC[C@]3(CCN(C)C3=O)C2)C1)N1CC2(CCN(c3ncnnc3Oc3ccc(F)cc3-c3cncnc3C3CC3)C2)C1` (single isomer, unassigned) [Compound 67], for which the concentration for half-maximal inhibition (IC50) with MOLM14 cells (Homo sapiens, MOLM-14, 192 h) was 0.007 µM; in assay [1], 0.0001 µM; with KO-52 cells (Homo sapiens, 192 h) it was over 15 µM.

Take `Fc1ccc(Oc2nncnc2N2CCC3(C2)CN([C@H](C2CCN(CC4COC4)CC2)C24CC(C2)C4)C3)c(-c2cncnc2C2CC2)c1` (single isomer, unassigned) [Compound 335]: the IC50 in the assay on MOLM14 cells (Homo sapiens, MOLM-14, 192 h) was found to be 0.03 µM; in assay [1] it was 0.0002 µM; with KO-52 cells (Homo sapiens, 192 h), 3.24 µM.

With `CC(C)[C@H]([C@H]1C[C@@H](NC2CC2)C1)N1CC2(CCN(c3ncnnc3Oc3ccc(F)cc3-c3ncccc3C3CC3)C2)C1` (single isomer, unassigned) [Compound 148], the IC50 came out at 0.003 µM in the assay on MOLM14 cells (Homo sapiens, MOLM-14, 192 h); 0.0002 µM in assay [1]; 0.61 µM with KO-52 cells (Homo sapiens, 192 h).

Take `CC(C)[C@H]([C@H]1C[C@@H](N2C[C@H](O)C3(CCC3)C2)C1)N1CC2(CCN(c3ncnnc3Oc3ccc(F)cc3-c3cncnc3C3CC3)C2)C1` (single isomer, unassigned) [Compound 214]: the IC50 in the assay on MOLM14 cells (Homo sapiens, MOLM-14, 192 h) was under 0.002 µM; in assay [1], 0.0001 µM; in the assay on KO-52 cells (Homo sapiens, 192 h) it was 3.63 µM.

As to `CC(=O)NC1CC(C(C(C)C)N2CC3(CCN(c4ncnnc4Oc4ccc(F)cc4-c4cncnc4C4CC4)C3)C2)C1` (single isomer, unassigned) [Compound 2b], the results for the IC50 (in the assay on MOLM14 cells; in assay [1]; in the assay with KO-52 cells) were 1.31 µM, 0.0166 µM and over 15 µM, respectively.

Regarding `CC(C)C([C@H]1C[C@H](N(C)C)C1)N1CC2(CCN(c3ncnnc3Oc3ccc(F)cc3-c3cncnc3C3CC3)C2)C1` (single isomer, unassigned) [Compound 8], the IC50 in the assay with MOLM14 cells (Homo sapiens, MOLM-14, 192 h) is 0.052 µM; in assay [1], 0.0003 µM; in the assay with KO-52 cells (Homo sapiens, 192 h) it was 10.2 µM.

Take `CC(C)[C@H]([C@H]1C[C@@H](N2CCC3(COC3)C2)C1)N1CC2(CCN(c3ncnnc3Oc3ccc(F)cc3-c3nnccc3C3CC3)C2)C1` (single isomer, unassigned) [Compound 255]: the half-inhibitory concentration (IC50) is 0.92 µM in the assay on MOLM14 cells (Homo sapiens, MOLM-14, 192 h); 0.0047 µM in assay [1]; over 15 µM in the assay on KO-52 cells (Homo sapiens, 192 h).

On to `CC(C)[C@H]([C@H]1C[C@H](N2CC3(CCO3)C2)C1)N1CC2(CCN(c3ncnnc3Oc3ccc(F)cc3-c3cnncc3C3CC3)C2)C1` (single isomer, unassigned) [Compound 84a], for which the 50% inhibitory concentration (IC50) was 0.85 µM in the assay with MOLM14 cells (Homo sapiens, MOLM-14, 192 h); 0.0215 µM in assay [1]; over 15 µM in the assay with KO-52 cells (Homo sapiens, 192 h).

Consider `CC(C)[C@H]([C@H]1C[C@H](N2CCCCC2)C1)N1CC2(CCN(c3ncnnc3Oc3ccc(F)cc3-c3cncnc3C3CC3)C2)C1` (single isomer, unassigned) [Compound 49], for which the IC50 came to 0.027 µM with MOLM14 cells (Homo sapiens, MOLM-14, 192 h); 0.0006 µM in assay [1]; 2.13 µM in the assay on KO-52 cells (Homo sapiens, 192 h).
